Experimental data from patent US20080200439A1, “Methods and compositions for modulating BK channel activity and vasodilation” (University of Tennessee Research Foundation, priority 2006, published 2008).

Test system: pressurized cerebral arteries from β1-knockout (KCNMB1-knockout) mice
Test: Artery diameter measurement, pressurized cerebral arteries from BK β1-knockout mice
Parameters: species or system mouse
Conditions: 55 nM
Experimental: Artery Diameter Measurement. Middle cerebral arteries were isolated from adult male Sprague-Dawley rats (=250 g) or 8- to 12-week-old β1-knockout and C57BL/6 control mice. Rats and mice were decapitated using a guillotine and sharp scissors, respectively. These procedures were approved by the Institutional Animal Care and Use Committee from The University of Tennessee Health Science Center, an AMLAC-accredited institution. Pressurization of arteries was performed as described (Liu et al., 2004). Endothelium was removed by passing an air bubble into the vessel lumen for 90 sec. Diameter changes were monitored through an inverted microscope (Nikon Eclipse TS100, Nikon Corp., Tokyo, Japan), recorded on camera (Sanyo VCB-3512T, Sanyo Electric Corp., Japan), and transferred to a computer. Diameter data were acquired and analyzed using IonWizard 4.4 software (IonOptics Corp., Milton, Mass., United States of America). […]
Data Analysis. […] Arterial diameter and electrophysiological data were analyzed with IonWizard 4.4 (IonOptics Corp., Milton, Mass., United States of America) and pCLAMP 8.0 (Molecular Devices, Union City, Calif., United States of America). […]
To determine the impact of LC targeting of BK β1-subunits on organ function, LC action on the arterial diameter of pressurized cerebral arteries was evaluated from β1-knockout vs. wt C57BU6 mice (controls). […]

Which Decrease in diameter does the source give for “iberiotoxin (QFTDVDCSVSKECWSVCKDLFGVDRGKCMGKKCRCYQ; UniProt P24663 1-37, looked up) [Ibtx, reference compound]” here?
The Decrease in diameter was −2.25±0.44%.
